Where “and” joins values, the source holds several entries; their conditions need not be identical. Identical values can stand only once.
Test system: 138582-337-R-J1-PDC spheroids with HUVEC/MSC, viability
Test: Anticancer human tumor 138582-337-R-J1-PDC patient-derived Merkel cell tumor cell line growth inhibition [IpAb]
Details: for viability, T/C: stronger effect = lower value
Text: Combinatorial screen of targeted agents with ipatasertib and abemaciclib in multi-cell type tumor spheroids
A high-throughput screen of multi-cell type tumor spheroids was designed to identify active combinations of targeted small molecules and ipatasertib or abemaciclib. Complex spheroids include a stromal component modeled by human endothelial cells (HUVEC) and fibroblasts modeled by human mesenchymal stem cells (MSCs). The concentration ranges selected for each drug and investigational agent were based upon clinically achievable concentrations if the clinical Cmax of the agent was known.
Compounds. The drugs and investigational agents: ipatasertib (NSC767898), abemaciclib(NSC768073), selumetinib (NSC741078), trametinib (758246), adavosertib (NSC754352), everolimus (NSC733504), sapanisertib (NSC764658), vemurafenib (NSC761431), venetoclax (NSC766270), copanlisib (NSC809693), apelisib (NSC765974), palbociblib (NSC758247), vemurafenib (NSC761431), dabrafenib (NSC764134), ravoxertinib (NSC781343), BMS-387032 (NSC767048), sotorasib (NSC818433), talazoparib (NSC767125) and afursertib (NSC778305), were obtained from the National Cancer Institute (NCI) Developmental Therapeutics Program Chemical Repository. The FDA-approved anticancer drug set is available from the NCI Developmental Therapeutics Program. […] The stock solutions were prepared in dimethyl sulfoxide (DMSO, Sigma-Aldrich, St. Louis, MO, cat. D2650) at 800-fold the tested concentration and stored at -70 degrees C prior to their use. All drugs and investigational agents were tested over a range starting from a high concentration at or near the clinical Cmax and decreasing in half-log increments. If the clinical Cmax for an agent had not been determined, the highest concentration tested was 10 microM.
NCI60 Cell Culture. NCI60 cell lines were obtained from the NCI Developmental Therapeutics Program Tumor Repository. For each lot of cells, the Repository performed Applied Biosystems AmpFLSTR Identifiler testing with PCR amplification to confirm consistency with the published Identifier STR profile for each cell line. Cells were kept in continuous culture for no more than 20 passages. The optimal seeding densities for each of the cell lines at each time point assessed were determined prior to performing the concentration response studies. Briefly, the NCI60 human tumor lines were grown as monolayers in RPMI 1640 medium supplemented with 10% FBS and 2 mmol/L L-glutamine.
An additional 9 lines were from the NCI60 cell line panel including MDA-MB-231 breast carcinoma, MDA-MB-468 breast carcinoma, MCF7 breast carcinoma, Hs578T breast carcinoma, MALME-3M melanoma, SK-MEL-2 melanoma, SK-OV-3 ovarian carcinoma, DU-145 prostate carcinoma, PC-3 prostate carcinoma, all cell lines along with major genetic alterations are listed on Table 2. Pooled donor human umbilical vein endothelial cells (HUVEC, Lonza, cat. CC-2519) and human mesenchymal stem cells (hMSC, Lonza, cat. PT-2501) were purchased from Lonza (Walkersville, MD).
PDMR cell lines were grown in complete medium (DC medium): Dulbecco's modified Eagle's medium (DMEM)/F12 supplemented with 5% fetal bovine serum (FBS), 2 mM L-glutamine, 100 U/mL penicillin and 100 µg/ml streptomycin, 0.4 µg/ml hydrocortisone, 10 ng/ml epidermal growth factor (EGF) recombinant human protein, 24 µg/mL adenine, and 0.1 mg/mL primocin. During culture from frozen stock vials, PDMR cells were cultured in the same medium containing 10 µM Y-27632 (see Table 3). The PDCs were cultured in complete DMEM/F12 media without 10 microM Y-27632 dihydrochloride for at least two passages prior to the screen. The pooled donor HUVEC and hMSC were cultured in endothelial cell growth medium 2 (PromoCell, Heidelberg, Germany, cat. C-22011) and mesenchymal stem cell growth medium 2 (PromoCell, cat. C-28009), respectively. For all experiments, HUVEC and hMSC were used at passages </=5.
[…]

[1] = curve of first compound, second compound 0.1 µM
[2] = curve of first compound, second compound 0.316 µM
[3] = curve of first compound, second compound 1 µM
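Further: spheroids exposed to compounds for seven days.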
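Wherever viability, T/C is given: 100% = DMSO vehicle control viability.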

Structure (SMILES): CC(C)n1nc(-c2ccc3oc(N)nc3c2)c2c(N)ncnc21 + CC(C)NCC(C(=O)N1CCN(c2ncnc3c2C(C)CC3O)CC1)c1ccc(Cl)cc1
- IC50 [1]: 22.4 nM
- IC50 [2]: 7.57 nM
- IC50 [3]: 1.97 nM
- IC50 (curve of first compound, second compound 3.16 µM): 0.362 nM
- IC50 (curve of first compound, second compound 10 µM): < 0.316 nM
- viability, T/C (second compound 0.1 µM, first compound 0.000316 µM): 96.3%
- viability, T/C (second compound 0.1 µM, first compound 0.001 µM): 89.2%
- viability, T/C (second compound 0.1 µM, first compound 0.00316 µM): 70%
- viability, T/C (second compound 0.1 µM, first compound 0.01 µM): 64.1%
- viability, T/C (second compound 0.1 µM, first compound 0.0316 µM): 43.8%
- viability, T/C (second compound 0.1 µM, first compound 0.1 µM): 31.9%
- viability, T/C (second compound 0.316 µM, first compound 0.000316 µM): 67.8%
- viability, T/C (second compound 0.316 µM, first compound 0.001 µM): 66%
- viability, T/C (second compound 0.316 µM, first compound 0.00316 µM): 61.8%
- viability, T/C (second compound 0.316 µM, first compound 0.01 µM): 44.1%
- viability, T/C (second compound 0.316 µM, first compound 0.0316 µM): 37%
- viability, T/C (second compound 0.316 µM, first compound 0.1 µM): 26.8%
- viability, T/C (second compound 1 µM, first compound 0.000316 µM): 63.1%
- viability, T/C (second compound 1 µM, first compound 0.001 µM): 54.1%
- viability, T/C (second compound 1 µM, first compound 0.00316 µM): 47.5%
- viability, T/C (second compound 1 µM, first compound 0.01 µM): 36.2%
- viability, T/C (second compound 1 µM, first compound 0.0316 µM): 27.5%
- viability, T/C (second compound 1 µM, first compound 0.1 µM): 22%
- viability, T/C (second compound 3.16 µM, first compound 0.000316 µM): 50%
- viability, T/C (second compound 3.16 µM, first compound 0.001 µM): 47.3%
- viability, T/C (second compound 3.16 µM, first compound 0.00316 µM): 36%
- viability, T/C (second compound 3.16 µM, first compound 0.01 µM): 27.3%
- viability, T/C (second compound 3.16 µM, first compound 0.0316 µM): 19.6%
- viability, T/C (second compound 3.16 µM, first compound 0.1 µM): 17.5%
- viability, T/C (second compound 10 µM, first compound 0.000316 µM): 40.5%
- viability, T/C (second compound 10 µM, first compound 0.001 µM): 35.9%
- viability, T/C (second compound 10 µM, first compound 0.00316 µM): 31.6%
- viability, T/C (second compound 10 µM, first compound 0.01 µM): 21.8%
- viability, T/C (second compound 10 µM, first compound 0.0316 µM): 14.4%
- viability, T/C (second compound 10 µM, first compound 0.1 µM): 12.3%

Structure (SMILES): CCN1CCN(Cc2ccc(Nc3ncc(F)c(-c4cc(F)c5nc(C)n(C(C)C)c5c4)n3)nc2)CC1
- viability, T/C (compound 0.01 µM): 96.6% [middle of 13 runs]
- viability, T/C (compound 0.0316 µM): 90.6% [middle of 13 runs]
- viability, T/C (compound 0.1 µM): 90.9% [middle of 13 runs]
- viability, T/C (compound 0.316 µM): 90.5% [middle of 13 runs]
- viability, T/C (compound 1 µM): 96.4% [middle of 13 runs]
- IC50 (compound alone, run of 05/18/2021): > 1000 nM

Structure (SMILES): Cn1cnc2c(F)c(Nc3ccc(Br)cc3Cl)c(C(=O)NOCCO)cc21
- viability, T/C (compound 0.00949 µM): 112% and 90.1%
- viability, T/C (compound 0.03 µM): 96.5% and 82.8%
- viability, T/C (compound 0.0949 µM): 98.2% and 82.7%
- viability, T/C (compound 0.3 µM): 116% and 84%
- viability, T/C (compound 0.949 µM): 109% and 97.7%
- viability, T/C (compound 3 µM): 146% and 106%
- IC50 (curve of compound): > 3000 nM

Structure (SMILES): CC(=O)c1c(C)c2cnc(Nc3ccc(N4CCNCC4)cn3)nc2n(C2CCCC2)c1=O + CCN1CCN(Cc2ccc(Nc3ncc(F)c(-c4cc(F)c5nc(C)n(C(C)C)c5c4)n3)nc2)CC1
- IC50 (curve of first compound, second compound 0.01 µM): > 300 nM
- IC50 (curve of first compound, second compound 0.0316 µM): > 300 nM
- IC50 [1]: > 300 nM
- IC50 [2]: > 300 nM
- IC50 [3]: > 300 nM
- viability, T/C (second compound 0.01 µM, first compound 0.000949 µM): 97.9%
- viability, T/C (second compound 0.01 µM, first compound 0.003 µM): 91.1%
- viability, T/C (second compound 0.01 µM, first compound 0.00949 µM): 88.1%
- viability, T/C (second compound 0.01 µM, first compound 0.03 µM): 92.5%
- viability, T/C (second compound 0.01 µM, first compound 0.0949 µM): 93.4%
- viability, T/C (second compound 0.01 µM, first compound 0.3 µM): 86.6%
- viability, T/C (second compound 0.0316 µM, first compound 0.000949 µM): 91.2%
- viability, T/C (second compound 0.0316 µM, first compound 0.003 µM): 89.5%
- viability, T/C (second compound 0.0316 µM, first compound 0.00949 µM): 79.7%
- viability, T/C (second compound 0.0316 µM, first compound 0.03 µM): 89%
- viability, T/C (second compound 0.0316 µM, first compound 0.0949 µM): 88.3%
- viability, T/C (second compound 0.0316 µM, first compound 0.3 µM): 81.8%
- viability, T/C (second compound 0.1 µM, first compound 0.000949 µM): 84.6%
- viability, T/C (second compound 0.1 µM, first compound 0.003 µM): 91.5%
- viability, T/C (second compound 0.1 µM, first compound 0.00949 µM): 85.1%
- viability, T/C (second compound 0.1 µM, first compound 0.03 µM): 88.7%
- viability, T/C (second compound 0.1 µM, first compound 0.0949 µM): 82%
- viability, T/C (second compound 0.1 µM, first compound 0.3 µM): 75%
- viability, T/C (second compound 0.316 µM, first compound 0.000949 µM): 93.6%
- viability, T/C (second compound 0.316 µM, first compound 0.003 µM): 86.6%
- viability, T/C (second compound 0.316 µM, first compound 0.00949 µM): 85.3%
- viability, T/C (second compound 0.316 µM, first compound 0.03 µM): 79.7%
- viability, T/C (second compound 0.316 µM, first compound 0.0949 µM): 87.6%
- viability, T/C (second compound 0.316 µM, first compound 0.3 µM): 79.7%
- viability, T/C (second compound 1 µM, first compound 0.000949 µM): 99.4%
- viability, T/C (second compound 1 µM, first compound 0.003 µM): 102%
- viability, T/C (second compound 1 µM, first compound 0.00949 µM): 93.3%
- viability, T/C (second compound 1 µM, first compound 0.03 µM): 88.6%
- viability, T/C (second compound 1 µM, first compound 0.0949 µM): 92.6%
- viability, T/C (second compound 1 µM, first compound 0.3 µM): 84.7%

Source: PubChem BioAssay AID2060343 (Molecular Pharmacology Branch, DTP, NCI, 2025)
